The subject of series [1] is BBB transport of 125I-ANG1005. Briefly: brain 125I-ANG1005 uptake with co-perfused transport inhibitors. It counts as in vivo, rat. Conditions: P>0.05.
The conditions of series [2]: male, Sprague Dawley, rat, in vivo.
For series [3] the following is noted: female, NuNu, mouse, in vivo, 30 min.
The conditions of series [4]: cited from earlier work.
A short description of series [5]: in situ rat brain perfusion, BBB transfer coefficient. The note with it: P>0.05.
A short description of series [6]: capillary depletion after in situ brain perfusion. The class given is in vivo, rat. Conditions: 120 s perfusion, 30 s post wash.
For series [7] the following is noted: cited from earlier work. The source holds these as a separate data set.
In series [8] the test system is brain endothelial monolayer system. Conditions: cited from earlier work.
Series [9] has as its target low density lipoprotein receptor-related protein (LRP) (Rattus norvegicus, UniProt G3V928). As to the kind of experiment: brain 125I-ANG1005 uptake with co-perfused unlabeled angiopep-2 or LRP ligands. Conditions: co-perfusion 120 s with 10 or 100 μM unlabeled angiopep-2, P<0.05. The class given is in vivo.

“Also recorded” adds a separate entry of the source. Where a name gives a salt, the structure may show the parent alone. Where only a bound is given, the exact number is not on record here.

low density lipoprotein receptor-related protein (LRP), sequence (G3V928 20-3944 limits assumed): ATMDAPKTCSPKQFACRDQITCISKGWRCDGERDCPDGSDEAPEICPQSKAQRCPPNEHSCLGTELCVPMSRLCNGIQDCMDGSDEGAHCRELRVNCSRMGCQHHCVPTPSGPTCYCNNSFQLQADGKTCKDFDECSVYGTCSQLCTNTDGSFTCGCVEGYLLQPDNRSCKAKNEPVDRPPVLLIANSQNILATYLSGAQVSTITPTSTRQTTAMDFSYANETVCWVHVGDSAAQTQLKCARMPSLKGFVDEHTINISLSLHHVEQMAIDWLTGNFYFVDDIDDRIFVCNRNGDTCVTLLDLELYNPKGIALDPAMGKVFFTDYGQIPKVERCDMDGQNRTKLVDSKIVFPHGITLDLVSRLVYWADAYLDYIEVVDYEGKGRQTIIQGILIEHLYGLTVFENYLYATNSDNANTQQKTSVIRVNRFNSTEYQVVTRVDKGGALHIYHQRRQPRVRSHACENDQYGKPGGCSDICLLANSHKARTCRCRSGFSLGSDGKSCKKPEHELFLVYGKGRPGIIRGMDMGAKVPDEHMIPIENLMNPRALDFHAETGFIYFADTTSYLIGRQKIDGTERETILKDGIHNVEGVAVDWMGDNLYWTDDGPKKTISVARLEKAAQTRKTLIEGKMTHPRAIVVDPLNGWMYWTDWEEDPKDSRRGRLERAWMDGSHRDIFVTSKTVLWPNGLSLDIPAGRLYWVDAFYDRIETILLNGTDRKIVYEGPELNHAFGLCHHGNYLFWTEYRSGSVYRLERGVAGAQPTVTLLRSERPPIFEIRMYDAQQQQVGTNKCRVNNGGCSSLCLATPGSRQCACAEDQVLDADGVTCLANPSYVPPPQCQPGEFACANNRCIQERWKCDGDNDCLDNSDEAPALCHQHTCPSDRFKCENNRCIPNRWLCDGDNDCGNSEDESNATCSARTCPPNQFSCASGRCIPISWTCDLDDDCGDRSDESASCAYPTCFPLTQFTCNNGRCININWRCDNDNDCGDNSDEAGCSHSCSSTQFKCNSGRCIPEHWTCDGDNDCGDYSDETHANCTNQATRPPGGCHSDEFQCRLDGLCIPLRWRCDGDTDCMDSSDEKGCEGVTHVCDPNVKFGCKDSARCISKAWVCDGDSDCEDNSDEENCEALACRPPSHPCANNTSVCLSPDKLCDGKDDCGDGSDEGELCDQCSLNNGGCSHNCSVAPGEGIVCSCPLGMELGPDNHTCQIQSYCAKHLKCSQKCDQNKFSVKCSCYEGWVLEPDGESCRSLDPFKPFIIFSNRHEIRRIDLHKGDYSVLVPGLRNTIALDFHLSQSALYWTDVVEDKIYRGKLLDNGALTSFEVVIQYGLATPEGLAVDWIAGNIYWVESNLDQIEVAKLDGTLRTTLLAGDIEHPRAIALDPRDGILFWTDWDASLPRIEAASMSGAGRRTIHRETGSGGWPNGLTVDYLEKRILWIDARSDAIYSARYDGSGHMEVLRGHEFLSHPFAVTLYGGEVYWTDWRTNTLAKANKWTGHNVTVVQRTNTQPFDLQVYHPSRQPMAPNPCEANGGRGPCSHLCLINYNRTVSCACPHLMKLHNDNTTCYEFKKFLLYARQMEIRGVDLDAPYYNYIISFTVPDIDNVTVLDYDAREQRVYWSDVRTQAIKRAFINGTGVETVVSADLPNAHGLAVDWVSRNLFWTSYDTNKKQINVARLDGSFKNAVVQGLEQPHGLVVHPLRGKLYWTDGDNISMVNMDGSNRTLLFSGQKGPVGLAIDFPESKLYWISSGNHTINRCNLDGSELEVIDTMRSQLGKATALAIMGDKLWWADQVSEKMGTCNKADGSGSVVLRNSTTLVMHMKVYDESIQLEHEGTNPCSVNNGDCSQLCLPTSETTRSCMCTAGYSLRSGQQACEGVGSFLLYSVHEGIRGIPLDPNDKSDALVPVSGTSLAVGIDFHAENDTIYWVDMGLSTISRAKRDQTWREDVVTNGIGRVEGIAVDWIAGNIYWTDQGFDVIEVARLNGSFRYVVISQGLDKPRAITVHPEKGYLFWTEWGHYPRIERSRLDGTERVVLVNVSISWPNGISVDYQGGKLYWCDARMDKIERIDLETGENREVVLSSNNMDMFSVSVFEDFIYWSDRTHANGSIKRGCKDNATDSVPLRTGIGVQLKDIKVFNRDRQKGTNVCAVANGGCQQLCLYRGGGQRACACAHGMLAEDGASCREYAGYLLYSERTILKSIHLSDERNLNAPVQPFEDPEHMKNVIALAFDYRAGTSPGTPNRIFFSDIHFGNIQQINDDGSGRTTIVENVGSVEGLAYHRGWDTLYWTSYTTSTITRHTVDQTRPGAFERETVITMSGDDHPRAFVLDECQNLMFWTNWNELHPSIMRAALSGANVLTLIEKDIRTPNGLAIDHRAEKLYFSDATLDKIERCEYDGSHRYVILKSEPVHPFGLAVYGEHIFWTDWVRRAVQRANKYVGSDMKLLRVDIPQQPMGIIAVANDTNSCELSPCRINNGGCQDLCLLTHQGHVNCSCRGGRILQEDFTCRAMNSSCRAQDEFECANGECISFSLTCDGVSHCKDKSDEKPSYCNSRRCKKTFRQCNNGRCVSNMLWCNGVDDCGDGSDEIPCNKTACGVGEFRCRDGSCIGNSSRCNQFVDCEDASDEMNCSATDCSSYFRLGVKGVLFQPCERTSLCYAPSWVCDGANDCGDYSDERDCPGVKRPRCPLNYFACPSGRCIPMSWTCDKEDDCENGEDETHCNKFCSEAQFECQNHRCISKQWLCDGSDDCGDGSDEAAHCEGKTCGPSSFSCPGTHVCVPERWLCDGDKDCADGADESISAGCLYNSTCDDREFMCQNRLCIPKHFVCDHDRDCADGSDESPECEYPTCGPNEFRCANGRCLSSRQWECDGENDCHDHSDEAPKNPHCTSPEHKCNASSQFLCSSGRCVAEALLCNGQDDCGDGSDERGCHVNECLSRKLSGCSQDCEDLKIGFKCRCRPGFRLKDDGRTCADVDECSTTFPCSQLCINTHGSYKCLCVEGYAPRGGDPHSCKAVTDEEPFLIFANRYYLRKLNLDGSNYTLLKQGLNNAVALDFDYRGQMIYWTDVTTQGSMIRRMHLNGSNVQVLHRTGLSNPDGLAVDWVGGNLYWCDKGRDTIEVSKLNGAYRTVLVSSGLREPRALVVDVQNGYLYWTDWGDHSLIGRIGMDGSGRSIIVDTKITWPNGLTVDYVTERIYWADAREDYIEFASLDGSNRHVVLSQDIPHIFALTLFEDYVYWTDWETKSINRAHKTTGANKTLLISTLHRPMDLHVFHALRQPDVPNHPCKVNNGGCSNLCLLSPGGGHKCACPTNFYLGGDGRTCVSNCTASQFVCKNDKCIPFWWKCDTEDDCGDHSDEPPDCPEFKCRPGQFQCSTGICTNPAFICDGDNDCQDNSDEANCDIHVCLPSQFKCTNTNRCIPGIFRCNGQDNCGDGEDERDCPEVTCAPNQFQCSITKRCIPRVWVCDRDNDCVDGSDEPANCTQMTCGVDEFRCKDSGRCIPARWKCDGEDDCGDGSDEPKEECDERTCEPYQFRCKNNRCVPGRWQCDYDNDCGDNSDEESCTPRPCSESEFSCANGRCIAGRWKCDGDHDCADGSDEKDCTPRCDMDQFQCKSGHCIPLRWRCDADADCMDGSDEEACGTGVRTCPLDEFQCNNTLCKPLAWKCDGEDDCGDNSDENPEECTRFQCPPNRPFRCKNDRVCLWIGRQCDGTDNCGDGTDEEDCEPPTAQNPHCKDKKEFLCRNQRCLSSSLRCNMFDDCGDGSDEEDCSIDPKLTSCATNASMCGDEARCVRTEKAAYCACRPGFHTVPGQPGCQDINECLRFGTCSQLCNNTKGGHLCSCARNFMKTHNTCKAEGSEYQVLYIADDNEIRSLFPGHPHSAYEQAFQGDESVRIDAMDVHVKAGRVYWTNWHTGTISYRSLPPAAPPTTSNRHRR
low density lipoprotein receptor-related protein (LRP), sequence (G3V928 3945-4545 limits assumed): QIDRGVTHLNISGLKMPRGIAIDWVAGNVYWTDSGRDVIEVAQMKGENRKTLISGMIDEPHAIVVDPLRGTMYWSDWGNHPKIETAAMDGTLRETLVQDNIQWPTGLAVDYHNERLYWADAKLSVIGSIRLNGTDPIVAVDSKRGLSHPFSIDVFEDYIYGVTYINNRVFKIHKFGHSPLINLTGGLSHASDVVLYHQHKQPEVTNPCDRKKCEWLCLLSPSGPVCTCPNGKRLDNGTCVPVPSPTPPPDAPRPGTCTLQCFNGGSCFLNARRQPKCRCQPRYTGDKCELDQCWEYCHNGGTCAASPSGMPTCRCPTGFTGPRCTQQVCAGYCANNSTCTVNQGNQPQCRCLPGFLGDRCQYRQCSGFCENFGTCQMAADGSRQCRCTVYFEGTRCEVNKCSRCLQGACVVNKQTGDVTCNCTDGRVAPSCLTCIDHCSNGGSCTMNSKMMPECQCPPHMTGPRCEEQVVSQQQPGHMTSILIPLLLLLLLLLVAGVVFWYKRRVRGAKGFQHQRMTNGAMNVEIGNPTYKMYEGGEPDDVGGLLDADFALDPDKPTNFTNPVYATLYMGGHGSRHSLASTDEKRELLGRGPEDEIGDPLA

As to `N[C@@H](Cc1ccccc1)C(=O)O` [L-phenylalanine], the “effect on Kin for brain uptake of 125I-ANG1005” value (shortened to “effect on Kin for brain uptake”) in series [1] (co-perfusion with L-phenylalanine 1 mM) was “None of the four agents produced a statistically significant decrease; also recorded: not inhibited”.
`OC[C@H]1O[C@@](CO)(O[C@H]2O[C@H](CO)[C@@H](O)[C@H](O)[C@H]2O)[C@@H](O)[C@@H]1O` [^14C-sucrose, sucrose]: the “brain vascular volume Vv (brain distribution space of 14C-sucrose)” value in series [2] was 1.2 ± 0.2 × 10^−2 mL/g.
For the molecule `CN(C)CCCN1c2ccccc2Sc2ccc(Cl)cc21` [chlorpromazine, chlorpromazine hydrochloride], the “effect on Kin for brain uptake” value in series [1] (co-perfusion with chlorpromazine 100 μM) is recorded as “None of the four agents produced a statistically significant decrease; also recorded: failed to alter”.
In the case of `COc1ccc2c(c1)c(CC(=O)O)c(C)n2C(=O)c1ccc(Cl)cc1` [indomethacin], the “effect on Kin for brain uptake” value in [1] (co-perfusion with indomethacin 300 μM) is “None of the four agents produced a statistically significant decrease; also recorded: failed to alter”.
Regarding `CC(=O)O[C@H]1C(=O)[C@@]2(C)[C@H]([C@H](OC(=O)c3ccccc3)[C@]3(O)C[C@H](OC(=O)[C@H](O)[C@@H](NC(=O)c4ccccc4)c4ccccc4)C(C)=C1C3(C)C)[C@]1(OC(C)=O)CO[C@@H]1C[C@@H]2O` [paclitaxel], the “lowering of brain drug content by vascular correction” value in series [3] is given as ~ 84%. In addition, in series [4], the “rise of brain paclitaxel concentrations on inhibition of active efflux transport” value was 6–10 fold. Besides, the “BBB transfer coefficient (Kin) for brain uptake” value in series [2] is 8.5 ± 0.5 × 10^−5 mL/s/g.
On to angiopep-2, for which the “brain 14C-sucrose space in the presence of the tracer (BBB permeability)” value in series [5] is on record as “not altered from control”. In [6], the “brain tracer in parenchymal fraction” value was > 70% and the “brain tracer in vascular (capillary) pellet” value is recorded as < 30%. In addition, the “brain uptake by in situ perfusion” value in series [7] was “improved brain uptake”. Also, the “transcytosis across a brain endothelial monolayer system in vitro” value in series [8] was “enhanced transcytosis”. Moreover, in [9], the “reduction of brain 125I-ANG1005 uptake” value is given as 30–40%.
In the case of poly-L-lysine, the “effect on Kin for brain uptake” value in series [1] (co-perfusion with poly-l-lysine 25 μM) is reported as “not inhibited”; in [1] (co-perfusion with poly-l-lysine 25 μM, listed as poly-l-lysine) it was “None of the four agents produced a statistically significant decrease”.
